Like-named read-outs stand apart in the source and are kept apart here.

The record followed here is patent publication US10188642B2, “Pharmacologically active compounds” (Cancer Research Technology Limited, priority 2012, dated 2019).

In this assay the target is full length MPS1 (Homo sapiens (Human), UniProt P33981). Description: Measurement of inhibition of MPS1 kinase (Caliper EZ reader mobility shift assay). The format is biochemical. The protocol: Measurement of Inhibition of MPS1 Kinase
(5 μM), ATP(10 μM), either DMSO (1% v/v) or the test compound (in the range 0.25 nM-100 μM in 1% DMSO) and assay buffer (50 mM HEPES (pH 7.0), 0.02% NaN3, 0.01% BSA, 0.1 mM Orthovandate, […], 1 μM DTT, Roche protease inhibitor). The reaction was carried out for 60 min at room temperature and stopped by the addition of buffer (10 μl) containing 20 mM EDTA, 0.05% (v/v) Brij-35, in 0.1M HEPES-buffered saline (Free acid, Sigma, UK). The plate was read on a Caliper EZ reader II (Caliper Life Sciences).
The reader provides a Software package (‘Reviewer’) which converts the peak heights into % conversion by measuring both product and substrate peak and also allows selection of control well which represent 0% and 100% inhibition respectively. The % inhibition of the compounds is calculated relative to the means of selected control wells. IC50s are determined by testing the compounds at a range of concentrations from 0.25 nM-100 μM. The % inhibitions at each concentration are then fitted to a 4 parameter logistic fit: y=(a+((b−a)/(1+((c/x^d)))) where a=asym min, b=asym max, c=IC50 and d=hill coefficient

The mark [1] stands for this setting: full length MPS1 12.5 nM or 3 nM, H236 peptide 5 μM, ATP 10 μM, 60 min at room temperature, read-out: MPS1 IC50.

Chain of full length MPS1 (P33981 whole entry): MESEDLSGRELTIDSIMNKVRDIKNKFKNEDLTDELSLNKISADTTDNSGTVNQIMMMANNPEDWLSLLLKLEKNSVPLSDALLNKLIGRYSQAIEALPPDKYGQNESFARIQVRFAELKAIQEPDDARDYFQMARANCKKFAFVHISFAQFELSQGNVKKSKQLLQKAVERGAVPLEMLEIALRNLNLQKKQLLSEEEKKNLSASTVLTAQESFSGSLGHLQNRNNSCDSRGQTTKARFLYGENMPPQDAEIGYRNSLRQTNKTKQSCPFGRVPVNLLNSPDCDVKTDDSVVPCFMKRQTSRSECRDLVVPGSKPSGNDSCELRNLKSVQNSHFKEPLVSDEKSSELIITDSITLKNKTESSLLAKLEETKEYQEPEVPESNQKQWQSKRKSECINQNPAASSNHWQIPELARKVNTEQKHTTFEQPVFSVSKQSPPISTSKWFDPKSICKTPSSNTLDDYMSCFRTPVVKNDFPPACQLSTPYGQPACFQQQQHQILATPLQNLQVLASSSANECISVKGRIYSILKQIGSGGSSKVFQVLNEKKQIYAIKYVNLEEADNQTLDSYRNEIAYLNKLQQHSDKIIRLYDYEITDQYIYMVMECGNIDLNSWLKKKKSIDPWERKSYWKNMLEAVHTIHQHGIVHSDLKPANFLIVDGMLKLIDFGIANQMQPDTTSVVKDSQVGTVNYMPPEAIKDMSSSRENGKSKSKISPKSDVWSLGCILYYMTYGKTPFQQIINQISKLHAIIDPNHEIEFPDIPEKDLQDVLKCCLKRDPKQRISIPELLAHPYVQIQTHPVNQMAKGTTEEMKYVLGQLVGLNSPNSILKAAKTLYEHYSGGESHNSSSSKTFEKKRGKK

One may read the IC50 as the midpoint of a concentration-inhibition curve. On to `CNC(=O)c1ccc2cnc(Nc3ccc(-c4cnn(C)c4)cc3OC)cc2n1` [Example 108, 7-(2-Methoxy-4-(1-methyl-1H-pyrazol-4-yl)phenylamino)-N-methyl-1,6-naphthyridine-2-carboxamide], for which the IC50 under setting [1] is 7 nM.

Take `COCCn1cc(-c2ccc3cnc(Nc4ccc(-c5cnn(C)c5CO)cc4OC)cc3c2)cn1` [Example 32, (4-(3-Methoxy-4-((6-(1-(2-methoxyethyl)-1H-pyrazol-4-yl)isoquinolin-3-yl)amino)phenyl)-1-methyl-1H-pyrazol-5-yl)methanol]: under setting [1], the IC50 came to 3 nM.

In the case of `COc1cc(-c2cnc(C)n2C)ccc1Nc1cc2cc(-c3cnn(CC(O)CO)c3)ccc2cn1` (racemic) [Example 109, Racemic 3-(4-(3-((4-(1,2-Dimethyl-1H-imidazol-5-yl)-2-methoxyphenyl)amino)isoquinolin-6-yl)-1H-pyrazol-1-yl)propane-1,2-diol], the IC50 was 3 nM.
